# In patent US20260234159A1, “SMALL MOLECULE TREATMENT OF FATTY LIVER DISEASE AND HCC” (SCANDIEDGE THERAPEUTICS AB, priority 2023, published 2026):
# Legend:
# HepG2 cells = experiment: Triglyceride (TAG) measurement assay, one week steatosis model; type: cell-based, human; settings: Homo sapiens, 168 h; HepG2, 10 μM, one week steatosis induce media; Control 100.00; read-out: TAG (%)
# Outline: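 HepG2 cells steatosis-induced for one week in high-glucose DMEM/10% FBS with 10 μg/ml insulin and 10 μM T0901317, media changed at days 0, 3 and 5, with 10 μM test compound throughout. Triglyceride measured colorimetrically (OD 570 nm); viability by MTT.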
# [1] = In vivo toxicological study in rats: plasma chemistry; set-up: species or system rats of the Wistar strain; settings: plasma, 30-300 mg/kg of SET159
# Experimental: Forty-two male and forty-two female rats of the Wistar strain were allocated to the study. Three groups of three males and three females were given doses of 30, 100 and 300 mg/kg of target compounds (Table 8). The vehicle was 1.5 w/w % HPMC, 1.5 w/w % PS80 in 10 mM PBS, pH 7 and dose volume were 5 mL/kg. The animals were acclimatised at least 14 day prior to the study and exposed to a 12 hours light, 12 hours dark light cycle. The formulations were administered via oral gavage. Administration occurred once daily in the morning for seven consecutive days. Blood for scheduled haematology and plasma chemistry were taken at necropsy. For plasma chemistry, 0.6 ml blood (lithium heparin) per animal and for haematology, 0.5 ml blood (K2EDTA) per animal. The blood and plasma were analysed using Exigo analyzer and Vetscan equipment. Blood samples were kept in room temperature […] after collection and mixing. The blood samples were analysed as whole blood within 60 min of collection. The VetScan analyser was calibrated with calibration samples of known plasma levels of each parameter before start of analysis, occasionally during the analysis period of study samples and after completed analyses (Table 10).
compound,measurement,setting,value
N#Cc1c(NC(=O)c2cccc3ccccc23)sc2c1CCN(C(=O)Nc1ccccc1OC(F)(F)F)C2 [PKL-A159],activity at 10 µM,HepG2 cells,4.54%
same,ALB,[1]; Sex/Group F/8,56 g/L
same,ALP,[1]; Sex/Group F/8,179 U/L
same,ALT,[1]; Sex/Group F/8,22 U/L
same,AMY,[1]; Sex/Group F/8,541 U/L
same,BUN,[1]; Sex/Group F/8,6.2 mmol/L
same,CA,[1]; Sex/Group F/8,2.76 mmol/L
same,CRE,[1]; Sex/Group F/8,39 µmol/L
same,GLOB,[1]; Sex/Group F/8,9 g/L
same,GLU,[1]; Sex/Group F/8,7.8 mmol/L
same,K+,[1]; Sex/Group F/8,4.9 mmol/L
same,NA+,[1]; Sex/Group F/8,139 mmol/L
same,PHOS,[1]; Sex/Group F/8,2.59 mmol/L
same,TBIL,[1]; Sex/Group F/8,4.0 µmol/L
same,TP,[1]; Sex/Group F/8,65 g/L
same,ALB,[1]; Sex/Group F/9,57 g/L
same,ALP,[1]; Sex/Group F/9,135 U/L
same,ALT,[1]; Sex/Group F/9,21 U/L
same,AMY,[1]; Sex/Group F/9,542 U/L
same,BUN,[1]; Sex/Group F/9,5.1 mmol/L
same,CA,[1]; Sex/Group F/9,2.88 mmol/L
same,CRE,[1]; Sex/Group F/9,46 µmol/L
same,GLOB,[1]; Sex/Group F/9,8 g/L
same,GLU,[1]; Sex/Group F/9,7.0 mmol/L
same,K+,[1]; Sex/Group F/9,4.4 mmol/L
same,NA+,[1]; Sex/Group F/9,139 mmol/L
same,PHOS,[1]; Sex/Group F/9,2.65 mmol/L
same,TBIL,[1]; Sex/Group F/9,4.3 µmol/L
same,TP,[1]; Sex/Group F/9,65 g/L
same,ALB,[1]; Sex/Group F/10,53 g/L
same,ALP,[1]; Sex/Group F/10,175 U/L
same,ALT,[1]; Sex/Group F/10,23 U/L
same,AMY,[1]; Sex/Group F/10,481 U/L
same,BUN,[1]; Sex/Group F/10,4.8 mmol/L
same,CA,[1]; Sex/Group F/10,2.89 mmol/L
same,CRE,[1]; Sex/Group F/10,40 µmol/L
same,GLOB,[1]; Sex/Group F/10,9 g/L
same,GLU,[1]; Sex/Group F/10,7.8 mmol/L
same,K+,[1]; Sex/Group F/10,4.7 mmol/L
same,NA+,[1]; Sex/Group F/10,139 mmol/L
same,PHOS,[1]; Sex/Group F/10,2.80 mmol/L
same,TBIL,[1]; Sex/Group F/10,4.0 µmol/L
same,TP,[1]; Sex/Group F/10,62 g/L
same,ALB,[1]; Sex/Group M/8,49 g/L
same,ALP,[1]; Sex/Group M/8,274 U/L
same,ALT,[1]; Sex/Group M/8,25 U/L
same,AMY,[1]; Sex/Group M/8,719 U/L
same,BUN,[1]; Sex/Group M/8,5.9 mmol/L
same,CA,[1]; Sex/Group M/8,2.94 mmol/L
same,CRE,[1]; Sex/Group M/8,29 µmol/L
same,GLOB,[1]; Sex/Group M/8,11 g/L
same,GLU,[1]; Sex/Group M/8,8.0 mmol/L
same,K+,[1]; Sex/Group M/8,5.0 mmol/L
same,NA+,[1]; Sex/Group M/8,141 mmol/L
same,PHOS,[1]; Sex/Group M/8,2.44 mmol/L
same,TBIL,[1]; Sex/Group M/8,4.0 µmol/L
same,TP,[1]; Sex/Group M/8,60 g/L
same,ALB,[1]; Sex/Group M/9,47 g/L
same,ALP,[1]; Sex/Group M/9,324 U/L
same,ALT,[1]; Sex/Group M/9,30 U/L
same,AMY,[1]; Sex/Group M/9,823 U/L
same,BUN,[1]; Sex/Group M/9,6.8 mmol/L
same,CA,[1]; Sex/Group M/9,2.99 mmol/L
same,CRE,[1]; Sex/Group M/9,36 µmol/L
same,GLOB,[1]; Sex/Group M/9,16 g/L
same,GLU,[1]; Sex/Group M/9,8.8 mmol/L
same,K+,[1]; Sex/Group M/9,5.0 mmol/L
same,NA+,[1]; Sex/Group M/9,141 mmol/L
same,PHOS,[1]; Sex/Group M/9,2.43 mmol/L
same,TBIL,[1]; Sex/Group M/9,4.3 µmol/L
same,TP,[1]; Sex/Group M/9,63 g/L
same,ALB,[1]; Sex/Group M/10,50 g/L
same,ALP,[1]; Sex/Group M/10,284 U/L
same,ALT,[1]; Sex/Group M/10,24 U/L
same,AMY,[1]; Sex/Group M/10,806 U/L
same,BUN,[1]; Sex/Group M/10,6.1 mmol/L
same,CA,[1]; Sex/Group M/10,3.02 mmol/L
same,CRE,[1]; Sex/Group M/10,47 µmol/L
same,GLOB,[1]; Sex/Group M/10,13 g/L
same,GLU,[1]; Sex/Group M/10,7.9 mmol/L
same,K+,[1]; Sex/Group M/10,4.8 mmol/L
same,NA+,[1]; Sex/Group M/10,142 mmol/L
same,PHOS,[1]; Sex/Group M/10,2.42 mmol/L
same,TBIL,[1]; Sex/Group M/10,4.3 µmol/L
same,TP,[1]; Sex/Group M/10,62 g/L
